Test results reported in PubChem BioAssay AID192 (DTP/NCI, 2004).
Where “and” joins values, the source holds several entries; their conditions need not be identical. Identical values can stand only once. Toxic doses and inconclusive results are not listed. Square brackets hold non-standard residues; d marks the D form. Peptide text beside a SMILES is read from it. * marks the point of attachment. Nle = CCCC[CH](N)C(=O)O; Cbz = O=C(OCc1ccccc1)*

System: BDF1 mice, B16 melanoma ip, median survival T/C
Assay: NCI In Vivo Anticancer Drug Screen. Data for tumor model B16 Melanoma (intraperitoneal) in B6D2F1 (BDF1) mice
Settings: endpoint: median survival time, higher = longer survival
Procedure, shortened: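 Survival or tumor size is measured after treatment of tumor-bearing mice and normalised to the vehicle-treated control group.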

[1] = dose: 200.0 mg/kg/injection, schedule: Q04DX003 (ip), vehicle: Klucel (hydroxypropylcellulose) (HPC)
[2] = dose: 50.0 mg/kg/injection, schedule: Q01DX009 (ip), vehicle: saline with Tween-80
[3] = dose: 100.0 mg/kg/injection, schedule: Q01DX009 (ip), vehicle: saline with Tween-80
[4] = dose: 25.0 mg/kg/injection, schedule: Q01DX009 (ip), vehicle: Klucel (hydroxypropylcellulose) (HPC)
[5] = dose: 50.0 mg/kg/injection, schedule: Q01DX009 (ip), vehicle: Klucel (hydroxypropylcellulose) (HPC)
[6] = dose: 100.0 mg/kg/injection, schedule: Q01DX009 (ip), vehicle: Klucel (hydroxypropylcellulose) (HPC)
[7] = dose: 200.0 mg/kg/injection, schedule: Q01DX009 (ip), vehicle: Klucel (hydroxypropylcellulose) (HPC)
[8] = dose: 400.0 mg/kg/injection, schedule: Q01DX009 (ip), vehicle: Klucel (hydroxypropylcellulose) (HPC)
[9] = dose: 25.0 mg/kg/injection, schedule: Q01DX009 (ip), vehicle: saline

COc1cccc2c1C(=O)c1c(O)c3c(c(O)c1C2=O)CC(O)(C(=O)CO)CC3OC1CC(N)C(O)C(C)O1 (stereo not given)
T/C (dose: 1.12 mg/kg/injection, schedule: Q01DX001 (ip), vehicle: water): 178 % of control
T/C (dose: 2.25 mg/kg/injection, schedule: Q01DX001 (ip), vehicle: water): 156 % of control and 212 % of control and 228 % of control
T/C (dose: 2.9 mg/kg/injection, schedule: Q01DX009 (ip), vehicle: saline): 195 % of control
T/C (dose: 4.2 mg/kg/injection, schedule: Q01DX001 (ip), vehicle: water): 178 % of control
T/C (dose: 4.32 mg/kg/injection, schedule: Q01DX004 (ip), vehicle: other): 152 % of control
T/C (dose: 4.5 mg/kg/injection, schedule: Q01DX001 (ip), vehicle: water): 161 % of control and 194 % of control and 273 % of control
T/C (dose: 6.9 mg/kg/injection, schedule: Q01DX001 (ip), vehicle: water): 183 % of control
T/C (dose: 7.2 mg/kg/injection, schedule: Q01DX004 (ip), vehicle: other): 152 % of control
T/C (dose: 9.0 mg/kg/injection, schedule: Q01DX001 (ip), vehicle: water): 203 % of control and 273 % of control and 277 % of control
T/C (dose: 9.4 mg/kg/injection, schedule: Q01DX001 (ip), vehicle: water): 189 % of control
T/C (dose: 10.0 mg/kg/injection, schedule: Q01DX009 (ip), vehicle: saline): 222 % of control and 298 % of control
T/C (dose: 11.4 mg/kg/injection, schedule: Q04DX003 (ip), vehicle: saline): 182 % of control
T/C (dose: 11.7 mg/kg/injection, schedule: Q01DX009 (ip), vehicle: saline): 267 % of control
T/C (dose: 12.0 mg/kg/injection, schedule: Q01DX004 (ip), vehicle: other): 159 % of control
T/C (dose: 15.0 mg/kg/injection, schedule: Q01DX001 (ip), vehicle: water): 108 % of control
T/C (dose: 18.0 mg/kg/injection, schedule: Q01DX001 (ip), vehicle: water): 203 % of control and 250 % of control and 273 % of control
T/C (dose: 18.75 mg/kg/injection, schedule: Q01DX001 (ip), vehicle: water): 235 % of control
T/C (dose: 18.8 mg/kg/injection, schedule: Q01DX001 (ip), vehicle: water): 200 % of control
T/C (dose: 19.2 mg/kg/injection, schedule: Q01DX001 (ip), vehicle: water): 209 % of control
T/C (dose: 20.0 mg/kg/injection, schedule: Q01DX009 (ip), vehicle: saline): 289 % of control and 314 % of control
T/C (dose: 22.8 mg/kg/injection, schedule: Q04DX003 (ip), vehicle: saline): 236 % of control
T/C (dose: 23.4 mg/kg/injection, schedule: Q01DX009 (ip), vehicle: saline): 165 % of control and 200 % of control
T/C (dose: 30.0 mg/kg/injection, schedule: Q01DX001 (ip), vehicle: water): 116 % of control
T/C (dose: 32.0 mg/kg/injection, schedule: Q01DX001 (ip), vehicle: other): 164 % of control
T/C (dose: 36.0 mg/kg/injection, schedule: Q01DX001 (ip), vehicle: water): 203 % of control
T/C (dose: 37.5 mg/kg/injection, schedule: Q01DX001 (ip), vehicle: water): 226 % of control and 280 % of control
T/C (dose: 40.0 mg/kg/injection, schedule: Q01DX009 (ip), vehicle: saline): 287 % of control
T/C (dose: 45.6 mg/kg/injection, schedule: Q04DX003 (ip), vehicle: saline): 150 % of control and 276 % of control
T/C (dose: 46.8 mg/kg/injection, schedule: Q01DX009 (ip), vehicle: saline): 172 % of control
T/C (dose: 60.0 mg/kg/injection, schedule: Q01DX001 (ip), vehicle: water): 114 % of control
T/C (dose: 72.0 mg/kg/injection, schedule: Q01DX001 (ip), vehicle: water): 277 % of control
T/C (dose: 75.0 mg/kg/injection, schedule: Q01DX001 (ip), vehicle: water): 314 % of control and 334 % of control
T/C (dose: 91.2 mg/kg/injection, schedule: Q04DX003 (ip), vehicle: saline): 157 % of control and 276 % of control
T/C (dose: 150.0 mg/kg/injection, schedule: Q01DX001 (ip), vehicle: water): 185 % of control and 315 % of control

CC(=O)CC(C)=O.CC(=O)CC(C)=O.CC(=O)CC(C)=O.[V]
T/C (dose: 3.13 mg/kg/injection, schedule: Q01DX009 (ip), vehicle: saline): 88 % of control
T/C (dose: 6.25 mg/kg/injection, schedule: Q01DX009 (ip), vehicle: saline): 89 % of control

Nc1ccc(S(=O)(=O)CCCl)cc1
T/C (dose: 12.5 mg/kg/injection, schedule: Q04DX003 (ip), vehicle: Klucel (hydroxypropylcellulose) (HPC)): 100 % of control
T/C (dose: 25.0 mg/kg/injection, schedule: Q04DX003 (ip), vehicle: Klucel (hydroxypropylcellulose) (HPC)): 105 % of control
T/C [1]: 99 % of control

COC(C/C=C\C=C\CC/C=C/CC(C)/C=C/C(=C\C(=O)O)CC(=O)O)/C(C)=C\C=C(/C)C(=O)O (stereo not given)
T/C (dose: 0.05 mg/kg/injection, schedule: Q01DX009 (ip), vehicle: saline): 108 % of control
T/C (dose: 0.1 mg/kg/injection, schedule: Q01DX009 (ip), vehicle: saline): 107 % of control
T/C (dose: 0.2 mg/kg/injection, schedule: Q01DX009 (ip), vehicle: saline): 107 % of control
T/C (dose: 0.4 mg/kg/injection, schedule: Q01DX009 (ip), vehicle: saline): 94 % of control

CCCCC(NC(=O)C(Cc1ccccc1)NC(=O)OCc1ccccc1)C(=O)O (stereo not drawn) (Cbz-Phe-[Nle]-OH; configuration not given here)
T/C [2]: 92 % of control
T/C [3]: 100 % of control

O=[N+]([O-])c1cc([As](=O)(O)O)ccc1Cl
T/C [4]: 100 % of control
T/C [5]: 96 % of control
T/C [6]: 96 % of control

CCC1(c2ccccc2)SC(=O)NC1=O (stereo not given)
T/C [2]: 98 % of control
T/C [3]: 104 % of control

C=CCOc1ccccc1Cl
T/C (dose: 50.0 mg/kg/injection, schedule: Q04DX003 (ip), vehicle: Klucel (hydroxypropylcellulose) (HPC)): 122 % of control
T/C [6]: 100 % of control
T/C [7]: 107 % of control
T/C [1]: 119 % of control
T/C [8]: 97 % of control

CCCCCC(CN(C)C)C(O)/C=C/c1ccccc1Cl (stereo not given)
T/C (dose: 6.0 mg/kg/injection, schedule: Q01DX009 (ip), vehicle: saline): 96 % of control
T/C (dose: 12.0 mg/kg/injection, schedule: Q01DX009 (ip), vehicle: saline): 98 % of control
T/C [9]: 103 % of control

O=C(O)c1ccc(S(=O)(=O)N(Cl)Cl)cc1
T/C (dose: 100.0 mg/kg/injection, schedule: Q01DX009 (ip), vehicle: saline): 110 % of control
T/C (dose: 200.0 mg/kg/injection, schedule: Q01DX009 (ip), vehicle: saline): 113 % of control
T/C (dose: 400.0 mg/kg/injection, schedule: Q01DX009 (ip), vehicle: saline): 104 % of control

CCC(N)CC
T/C [9]: 102 % of control
T/C (dose: 50.0 mg/kg/injection, schedule: Q01DX009 (ip), vehicle: saline): 117 % of control

C[NH-].C[NH-].C[NH-].C[NH-].[Cl][Rh][Cl]
T/C [4]: 114 % of control
T/C [5]: 120 % of control
T/C [6]: 105 % of control

Cc1c(Cl)cccc1NS(=O)(=O)c1ccc(Cl)cc1
T/C [4]: 106 % of control
T/C [5]: 97 % of control
T/C [6]: 99 % of control

CCCNCCN(CC)CC
T/C [2]: 107 % of control
T/C [3]: 100 % of control
T/C (dose: 200.0 mg/kg/injection, schedule: Q01DX009 (ip), vehicle: saline with Tween-80): 99 % of control

CC(Br)C(=O)NC(Cc1ccccc1)C(=O)O (stereo not given)
T/C [2]: 94 % of control
T/C [3]: 91 % of control

COc1cc2c(=O)oc3c(OC)c(O)cc4c(=O)oc(c1OC)c2c34
T/C (dose: 4.0 mg/kg/injection, schedule: Q01DX009 (ip), vehicle: saline with Tween-80): 100 % of control
T/C (dose: 8.0 mg/kg/injection, schedule: Q01DX009 (ip), vehicle: saline with Tween-80): 94 % of control
T/C (dose: 16.0 mg/kg/injection, schedule: Q01DX009 (ip), vehicle: saline with Tween-80): 96 % of control
T/C (dose: 32.0 mg/kg/injection, schedule: Q01DX009 (ip), vehicle: saline with Tween-80): 90 % of control

Cc1ccc(NC(=O)c2cccc(C(=O)Nc3ccc(C)c(Cl)c3)c2)cc1Cl
T/C [6]: 97 % of control
T/C [7]: 105 % of control
T/C [8]: 97 % of control

Cc1c(Cl)cccc1NC(=O)c1ccc(Cl)cc1
T/C (dose: 75.0 mg/kg/injection, schedule: Q01DX009 (ip), vehicle: Klucel (hydroxypropylcellulose) (HPC)): 94 % of control
T/C (dose: 150.0 mg/kg/injection, schedule: Q01DX009 (ip), vehicle: Klucel (hydroxypropylcellulose) (HPC)): 90 % of control

CSc1ccc2c(c1)C(N1CCN(C)CC1)Cc1ccccc1S2 (stereo not given)
T/C (dose: 1.56 mg/kg/injection, schedule: Q01DX009 (ip), vehicle: saline with Tween-80): 109 % of control
T/C (dose: 3.12 mg/kg/injection, schedule: Q01DX009 (ip), vehicle: saline with Tween-80): 110 % of control
